Laboratory results as given in US20190119200A1, “TERTIARY AMIDES AND METHOD OF USE” (AbbVie Inc., priority 2016, published 2019).

Legend:
Format in all cases: cell-based
[1] = tested on: LPA-induced MCP-1 in NRK-49F cells; assay: LPA-induced MCP-1 AlphaLISA assay; settings: Rattus norvegicus, final LPA 10 μM, 7 hours; for Emax: read-out: Maximum Inhibition
Method in brief: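 NRK-49F rat fibroblasts, serum-starved overnight, pretreated with compound for 30 min at 37 °C (1% DMSO final), then stimulated with 10 μM LPA final. MCP-1 in the supernatant was measured by mouse/rat CCL2 AlphaLISA. IC50 values came from four-parameter logistic fits of the ratio data.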

[2] = molecular target: T1, LPAR1 (Homo sapiens, UniProt Q92633); assay: LPAR1 FLIPR Assay; settings: U2OS cells stably expressing LPAR1, LPA (EC80), Calcium 6 FLIPR dye; for Emax: read-out: Maximum Inhibition
T1 construct: host or cells: U2OS
T1 sequence (Q92633 whole entry): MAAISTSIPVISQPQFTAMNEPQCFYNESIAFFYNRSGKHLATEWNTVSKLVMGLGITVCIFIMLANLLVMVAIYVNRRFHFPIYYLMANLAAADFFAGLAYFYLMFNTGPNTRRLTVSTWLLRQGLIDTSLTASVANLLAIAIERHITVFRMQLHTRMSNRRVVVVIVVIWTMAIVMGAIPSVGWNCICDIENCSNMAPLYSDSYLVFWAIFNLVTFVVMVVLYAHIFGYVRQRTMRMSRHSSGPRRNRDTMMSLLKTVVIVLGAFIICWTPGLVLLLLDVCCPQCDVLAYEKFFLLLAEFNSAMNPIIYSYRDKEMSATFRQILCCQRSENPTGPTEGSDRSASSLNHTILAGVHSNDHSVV
Method in brief: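 U2OS cells stably expressing LPAR1 were loaded with Calcium 6 dye for 2 h at 37° C, preincubated 3 min with compound (11-point 3-fold series), then stimulated with LPA at EC80. Fluorescence at 515-575 nm was recorded by FLIPR; IC50 came from four-parameter logistic fits of ratio data.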

[3] = molecular target: T1, LPAR1; assay: IP-One HTRF Assay; settings: U2OS cells stably expressing LPAR1, LPA stimulation, IP-One Tb HTRF kit; for Emax: read-out: Maximum Inhibition
Description: U2OS cells stably expressing LPAR1 (Life Technologies #K1519A) were plated at 20000 cells/well in growth medium (McCoy's 5A(Life Technologies #16600-082)) with 10% dFBS (Life Technologies #26400-036), 0.1 mM non-essential amino acids, 25 mM HEPES, 1 mM sodium pyruvate, 1% penicillin/streptomycin, 50 μg/mL hygromycin, and 100 μg/mL Geneticin® in tissue culture treated 384-well white plates (Greiner #781080) in humidified 5% CO2 at 37° C. overnight. On the day of the assay, culture medium was replaced with 30 μL/well of McCoy's 5A with 0.1% BSA. Cells were incubated in humidified 5% CO2 at 37° C. for 3 more hours. Compounds were 3-fold serial diluted from 2 mM for 11-points using dimethyl sulfoxide. 1 μL of compound in DMSO was diluted in 50 μL stimulation buffer from an IP-One Tb HTRF kit (Cisbio #62IPAPEB) immediately before assay. 15 μL/well of 1.33× compound in stimulation buffer was added to cells after removal of culture medium. After 20 minutes of incubation at 37° C., 5 μL/well of 8 μM LPA diluted in stimulation buffer with 0.1% fatty acid free BSA was added to cells. […]. To EC100 wells were added 4×20 μM LPA. To the cells were added 5 μL/well IP1-d2 conjugate and 5 μLwell IP1-K antibody after 2 hours of incubation at 37° C. Cells were incubated at room temperature for 1 hour (protected from light). The plate was then read at 665 nm and 615 nm using an EnVision® Multilabel Plate Reader. IC50 values were calculated from curve fits of the ratio data using a four-parameter logistic Hill equation (Assay Explorer 3.3 Client).

Row | SMILES | IC50 [1] [nM] | Emax [1] [%] | IC50 [2] [nM] | Emax [2] [%] | IC50 [3] [nM] | Emax [3] [%]
1 | COc1cc(C(=O)N(CCCc2ccccc2)CC(=O)NC2(C(=O)O)Cc3ccccc3C2)cc(OC)c1C [Example 1, 2-{[N-(3,5-dimethoxy-4-methylbenzoyl)-N-(3-phenylpropyl)glycyl]amino}-2,3-dihydro-1H-indene-2-carboxylic Acid] | 1540 | 66 | 45 | 74 | 1210 | 75
2 | COc1cc(C(=O)N(CCCc2ccccc2)CC(=O)NC2(C(=O)O)CCCCC2)cc(OC)c1C [Example 2, 1-{[N-(3,5-dimethoxy-4-methylbenzoyl)-N-(3-phenylpropyl)glycyl]amino}cyclohexane-1-carboxylic Acid] | – | – | 114 | 72 | 4830 | 84
3 | COc1cc(C(=O)N(CCCCCC(=O)O)CCCc2ccccc2)cc(OC)c1C [Example 5, 6-[(3,5-dimethoxy-4-methylbenzoyl)(3-phenylpropyl)amino]hexanoic Acid] | 286 | 97 | 27 | 97 | 313 | 105
4 | COc1cc(C(=O)N(CCCCC(=O)O)CCCc2cccc(C)c2)cc(OC)c1C [Example 11, 5-{(3,5-dimethoxy-4-methylbenzoyl)[3-(3-methylphenyl)propyl]amino}pentanoic Acid] | 247 | 91 | 15 | 96 | 253 | 88
5 | CNS(=O)(=O)NC(=O)CCN(CCCc1ccccc1)C(=O)c1cc(OC)c(C)c(OC)c1 [Example 68, 3,5-dimethoxy-4-methyl-N-{3-[(methylsulfamoyl)amino]-3-oxopropyl}-N-(3-phenylpropyl)benzamide] | – | – | 902 | 52 | 13300 | 67
6 | COc1cc(C(=O)N(CCCCC(=O)NS(=O)(=O)c2ccccc2)CCCc2ccccc2)cc(OC)c1C [Example 144, N-{5-[(benzenesulfonyl)amino]-5-oxopentyl}-3,5-dimethoxy-4-methyl-N-(3-phenylpropyl)benzamide] | 1090 | 96 | 99 | 92 | – | –
7 | COc1cc(C(=O)N(CCCOC(=O)NS(=O)(=O)c2ccc(F)cc2)CCCc2ccccc2)cc(OC)c1C [Example 145, 3-[(3,5-dimethoxy-4-methylbenzoyl)(3-phenylpropyl)amino]propyl (4-fluorobenzene-1-sulfonyl)carbamate] | 3960 | 59 | 437 | 51 | – | –
8 | COc1cc(C(=O)N(CCCCC(=O)O)CCCc2ccc(F)cc2F)cc(OC)c1C [Example 146, 5-{[3-(2,4-difluorophenyl)propyl](3,5-dimethoxy-4-methylbenzoyl)amino}pentanoic Acid] | 807 | 79 | 46 | 89 | – | –
9 | COc1cc(OC)cc(C(=O)N(CCCCC(=O)O)CCCc2ccc(F)cc2)c1 [Example 148, 5-{(3,5-dimethoxybenzoyl)[3-(4-fluorophenyl)propyl]amino}pentanoic Acid] | > 10000 | 40 | > 10000 | 47 | – | –
10 | COc1cc(C(=O)N(CCCCC(=O)NS(=O)(=O)C(F)(F)F)CCCc2ccccc2)cc(OC)c1C [Example 150, 3,5-dimethoxy-4-methyl-N-{5-oxo-5-[(trifluoromethanesulfonyl)amino]pentyl}-N-(3-phenylpropyl)benzamide] | 2030 | 67 | 45 | 73 | – | –
11 | COc1ccc(C2(C(=O)N(CCCCC(=O)O)CCCc3ccccc3)CC(=O)C2)cc1 [Example 152, 5-{[1-(4-methoxyphenyl)-3-oxocyclobutane-1-carbonyl](3-phenylpropyl)amino}pentanoic Acid] | 6170 | 64 | 85 | 88 | – | –
12 | COc1cc(C(=O)N(CCCc2ccccc2)CCCC(C)C(=O)NS(C)(=O)=O)cc(OC)c1C (centres unmarked) [Example 161, N-{5-[(methanesulfonyl)amino]-4-methyl-5-oxopentyl}-3,5-dimethoxy-4-methyl-N-(3-phenylpropyl)benzamide] | 79 | 88 | 99 | 99 | – | –
13 | COc1cc(C(=O)N(CCCc2ccccc2)CCCC(C)(C)C(=O)NS(C)(=O)=O)cc(OC)c1C [Example 162, N-{5-[(methanesulfonyl)amino]-4,4-dimethyl-5-oxopentyl}-3,5-dimethoxy-4-methyl-N-(3-phenylpropyl)benzamide] | 7 | 94 | 76 | 100 | – | –
14 | COc1cc(C(=O)N(CCCc2ccccc2)CCCC(O)C(=O)O)cc(OC)c1C1CC1 (centres unmarked) [Example 165, 5-[(4-cyclopropyl-3,5-dimethoxybenzoyl)(3-phenylpropyl)amino]-2-hydroxypentanoic Acid] | 2730 | 70 | 45 | 83 | – | –
15 | COc1cc(C(=O)N(CCCCc2nnn[nH]2)CCCc2ccccc2)cc(OC)c1C [Example 166, 3,5-dimethoxy-4-methyl-N-(3-phenylpropyl)-N-[4-(1H-tetrazol-5-yl)butyl]benzamide] | 1060 | 80 | 42 | 96 | – | –
16 | Cc1ncc(Cl)c(C(=O)N(CCCCC(=O)O)CCCc2ccccc2)n1 [Example 167, 5-[(5-chloro-2-methylpyrimidine-4-carbonyl)(3-phenylpropyl)amino]pentanoic Acid] | > 10000 | 25 | 635 | 58 | – | –
17 | O=C(O)CCCCN(CCCc1ccccc1)C(=O)C1CC(=O)Nc2cc(F)ccc21 (centres unmarked) [Example 170, 5-[(7-fluoro-2-oxo-1,2,3,4-tetrahydroquinoline-4-carbonyl)(3-phenylpropyl)amino]pentanoic Acid] | > 10000 | 50 | 333 | 81 | – | –
18 | CC(=O)Nc1cc(C(=O)N(CCCCC(=O)O)CCCc2ccccc2)ccn1 [Example 171, 5-[(2-acetamidopyridine-4-carbonyl)(3-phenylpropyl)amino]pentanoic Acid] | > 2180 | 30 | 933 | 70 | – | –
19 | CCOc1cc(OCC)cc(C(=O)N(CCCCC(=O)O)CCCc2ccc(C)o2)c1 [Example 176, 5-{(3,5-diethoxybenzoyl)[3-(5-methylfuran-2-yl)propyl]amino}pentanoic Acid] | > 8190 | 53 | 84 | 64 | – | –
20 | COc1cc(C(=O)N(CCCc2ccc(C)o2)CCCC(C)C(=O)O)cc(OC)c1C (centres unmarked) [Example 179, 5-{(3,5-dimethoxy-4-methylbenzoyl)[3-(5-methylfuran-2-yl)propyl]amino}-2-methylpentanoic Acid] | 1980 | 74 | 46 | 97 | – | –
21 | COc1cc(C(=O)N(CCCc2ccc(C)o2)CCCC(C)(C)C(=O)O)cc(OC)c1C [Example 180, 5-{(3,5-dimethoxy-4-methylbenzoyl)[3-(5-methylfuran-2-yl)propyl]amino}-2,2-dimethylpentanoic Acid] | 105 | 93 | 48 | 100 | – | –
22 | COc1cc(C(=O)N(CCCCC(=O)O)CCC(C)c2ccccc2)cc(OC)c1C (centres unmarked) [Example 182, 5-[(3,5-dimethoxy-4-methylbenzoyl)(3-phenylbutyl)amino]pentanoic Acid] | 994 | 85 | 47 | 91 | – | –
23 | COc1cc(C(=O)N(CCCOC(=O)NS(C)(=O)=O)CCCc2ccccc2)cc(OC)c1C [Example 186, 3-[(3,5-dimethoxy-4-methylbenzoyl)(3-phenylpropyl)amino]propyl (methanesulfonyl)carbamate] | 7050 | 54 | 65 | 83 | – | –
